The structures appear in SMILES notation. pIC50: −log10 of the molar value.

Drawing on patent US20100227859A1, “TRICYCLIC COMPOUNDS AS MATRIX METALLOPROTEINASE INHIBITORS” (priority 2007, published 2010), this text covers IC50 for 33 compounds.

Sequence of purified human MMP-12 enzyme (P39900 106-470): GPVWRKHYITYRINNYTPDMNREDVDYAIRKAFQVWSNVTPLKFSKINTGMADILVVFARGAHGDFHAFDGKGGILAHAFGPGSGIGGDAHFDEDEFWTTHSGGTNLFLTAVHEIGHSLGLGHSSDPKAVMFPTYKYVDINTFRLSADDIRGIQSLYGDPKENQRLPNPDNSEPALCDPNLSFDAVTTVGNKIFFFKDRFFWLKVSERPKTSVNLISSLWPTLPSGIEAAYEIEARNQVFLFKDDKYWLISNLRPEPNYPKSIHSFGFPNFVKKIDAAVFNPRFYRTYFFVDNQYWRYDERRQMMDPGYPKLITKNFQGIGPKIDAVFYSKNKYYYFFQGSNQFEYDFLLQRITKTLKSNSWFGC

This assay addresses purified human MMP-12 enzyme (Homo sapiens, UniProt P39900). The assay is described as follows: MMP-12 FRET assay. In kind it is biochemical. The note with it: substrate 20 μM, room temperature. In a few lines:
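Initial fluorescence rate (325/395 nm) of cleavage of MCA-Pro-Leu-Gly-Leu-Dpa(DNP)-Ala-Arg, 20 μM final, was followed for 30 min at room temperature after a 30 min enzyme–compound preincubation. Buffer: 50 mM HEPES pH 7.4, 100 mM NaCl, 5 mM CaCl2, 0.005% Brij-35, with 10% final DMSO. IC50 came from a Hill-type fit of rate versus inhibitor concentration.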
As to `CC(C)[C@H](NS(=O)(=O)c1ccc2c(c1)oc1ccc(-c3csc4ccccc34)cc12)C(=O)O` [Compound 12, (S)-2-(8-(benzo[b]thiophen-3-yl)dibenzo[b,d]furan-3-sulfonamido)-3-methylbutanoic acid], the pIC50 was more than 8.82.
In the case of `CC(C)[C@H](NS(=O)(=O)c1ccc2c(c1)oc1ccc(C#Cc3cncn3C)cc12)C(=O)O` [Compound 15, (S)-3-methyl-2-(8-((1-methyl-1H-imidazol-5-yl)ethynyl)dibenzo[b,d]furan-3-sulfonamido)butanoic acid] it was more than 8.82; in that of `CC(C)[C@H](NS(=O)(=O)c1ccc2c(c1)sc1ccc(/C=C/C3CCCCC3)cc12)C(=O)O` [Compound 58, (S,E)-2-(8-(2-cyclohexylvinyl)dibenzo[b,d]thiophene-3-sulfonamido)-3-methylbutanoic acid], 7.74.
In the case of `CC(C)[C@@H](NS(=O)(=O)c1ccc2oc3cc(-c4noc(CC5CCCC5)n4)ccc3c2c1)C(=O)O` [Compound 191, (R)-2-(7-(5-(cyclopentylmethyl)-1,2,4-oxadiazol-3-yl)dibenzo[b,d]furan-2-sulfonamido)-3-methylbutanoic acid] it was 8.48.
In the case of `CC(C)[C@H](NS(=O)(=O)c1ccc2c(c1)oc1ccc(-c3ccc(C(F)(F)F)cc3)cc12)C(=O)O` [Compound 311, (S)-3-methyl-2-(8-(4-(trifluoromethyl)phenyl)dibenzo[b,d]furan-3-sulfonamido)butanoic acid] it was 8.70; in that of `CC(C)[C@@H](NS(=O)(=O)c1ccc2oc3cc(-c4cccs4)ccc3c2c1)C(=O)O` [Compound 118, (R)-3-methyl-2-(7-(thiophen-2-yl)dibenzo[b,d]furan-2-sulfonamido)butanoic acid], 9.22; in that of `CC(C)c1nc(-c2ccc3c(c2)oc2ccc(S(=O)(=O)N[C@@H](C(=O)O)C(C)C)cc23)no1` [Compound 138, (R)-2-(7-(5-isopropyl-1,2,4-oxadiazol-3-yl)dibenzo[b,d]furan-2-sulfonamido)-3-methylbutanoic acid], 8.55.
As for `CC(C)[C@H](NS(=O)(=O)c1ccc2c(c1)oc1ccc(-c3nc4c(F)cccc4s3)cc12)C(=O)O` [Compound 218, (S)-2-(8-(4-fluorobenzo[d]thiazol-2-yl)dibenzo[b,d]furan-3-sulfonamido)-3-methylbutanoic acid], the pIC50 was more than 8.82.
To `CCc1ccc(-c2ccc3c(c2)oc2ccc(S(=O)(=O)N[C@@H](C(=O)O)C(C)C)cc23)s1` [Compound 239, (R)-2-(7-(5-ethylthiophen-2-yl)dibenzo[b,d]furan-2-sulfonamido)-3-methylbutanoic acid] belongs more than 8.82; to `CC(C)[C@@H](NS(=O)(=O)c1ccc2oc3cc(-c4cncnc4)ccc3c2c1)C(=O)O` [Compound 167, (R)-3-methyl-2-(7-(pyrimidin-5-yl)dibenzo[b,d]furan-2-sulfonamido)butanoic acid], more than 8.82.
In turn, `CC(C)[C@@H](NS(=O)(=O)c1ccc2oc3cc(-c4ccc(-c5ccccc5)s4)ccc3c2c1)C(=O)O` [Compound 289, (R)-3-methyl-2-(7-(5-phenylthiophen-2-yl)dibenzo[b,d]furan-2-sulfonamido)butanoic acid] had a pIC50 of 8.04.
To `CC(C)Cn1cc(-c2ccc3oc4cc(S(=O)(=O)N[C@H](C(=O)O)C(C)C)ccc4c3c2)cn1` [Compound 159, (S)-2-(8-(1-isobutyl-1H-pyrazol-4-yl)dibenzo[b,d]furan-3-sulfonamido)-3-methylbutanoic acid] belongs 8.21; to `CC(C)[C@@H](NS(=O)(=O)c1ccc2oc3cc(-c4nc5ccc(F)cc5s4)ccc3c2c1)C(=O)O` [Compound 297, (R)-2-(7-(6-fluorobenzo[d]thiazol-2-yl)dibenzo[b,d]furan-2-sulfonamido)-3-methylbutanoic acid], 8.66; to `CC(C)[C@@H](NS(=O)(=O)c1ccc2oc3cc(-c4ccc(C(F)(F)F)cc4)ccc3c2c1)C(=O)O` [Compound 120, (R)-3-methyl-2-(7-(4-(trifluoromethyl)phenyl)dibenzo[b,d]furan-2-sulfonamido)butanoic acid], 8.66.
As for `CC(C)(C)c1nc(-c2ccc3oc4cc(S(=O)(=O)N[C@@H](C(=O)O)c5ccccc5)ccc4c3c2)no1` [Compound 255, (R)-2-(8-(5-tert-butyl-1,2,4-oxadiazol-3-yl)dibenzo[b,d]furan-3-sulfonamido)-2-phenylacetic acid], the pIC50 was 7.68.
In the case of `CC(C)[C@@H](NS(=O)(=O)c1ccc2sc3cc(-c4ccco4)ccc3c2c1)C(=O)O` [Compound 287, (R)-2-(7-(furan-2-yl)dibenzo[b,d]thiophene-2-sulfonamido)-3-methylbutanoic acid] it was 7.15; in that of `CC(C)[C@H](NS(=O)(=O)c1ccc2c(c1)oc1ccc(-c3nc(C(F)(F)F)cs3)cc12)C(=O)O` [Compound 126, (S)-3-methyl-2-(8-(4-(trifluoromethyl)thiazol-2-yl)dibenzo[b,d]furan-3-sulfonamido)butanoic acid], more than 8.82.
`CC(C)[C@@H](NS(=O)(=O)c1ccc2oc3cc(-c4ccc[nH]4)ccc3c2c1)C(=O)O` [Compound 116, (R)-2-(7-(1H-pyrrol-2-yl)dibenzo[b,d]furan-2-sulfonamido)-3-methylbutanoic acid]: the pIC50 was 8.51.
`CC(C)(C)c1nc(-c2ccc3oc4cc(S(=O)(=O)N[C@H](C(=O)O)C(C)(C)C)ccc4c3c2)no1` [Compound 257, (S)-2-(8-(5-tert-butyl-1,2,4-oxadiazol-3-yl)dibenzo[b,d]furan-3-sulfonamido)-3,3-dimethylbutanoic acid] had a pIC50 of 8.04.
Compound `CC(C)[C@H](NS(=O)(=O)c1ccc2c(c1)oc1cc(-c3nc4ccc(C(F)(F)F)cc4s3)ccc12)C(=O)O` [Compound 236, (S)-3-methyl-2-(7-(6-(trifluoromethyl)benzo[d]thiazol-2-yl)dibenzo[b,d]furan-3-sulfonamido)butanoic acid] showed a pIC50 of 7.92.
The compound `CC(C)[C@@H](NS(=O)(=O)c1ccc2oc3cc(-c4ccoc4)ccc3c2c1)C(=O)O` [Compound 96, (R)-2-(7-(furan-3-yl)dibenzo[b,d]furan-2-sulfonamido)-3-methylbutanoic acid] showed a negative logarithm of the IC50 (pIC50) of 7.89.
In the case of `CC(C)[C@H](NS(=O)(=O)c1ccc2c(c1)oc1ccc(-c3ccc(C(C)N(C)C)s3)cc12)C(=O)O` (stereo partly drawn) [Compound 50, (S)-2-(8-(5-(1-(dimethylamino)ethyl)thiophen-2-yl)dibenzo[b,d]furan-3-sulfonamido)-3-methylbutanoic acid] it was 8.24; in that of `CC(C)Cc1ncc(-c2ccc3c(c2)oc2ccc(S(=O)(=O)N[C@@H](C(=O)O)C(C)C)cc23)s1` [Compound 244, (R)-2-(7-(2-isobutylthiazol-5-yl)dibenzo[b,d]furan-2-sulfonamido)-3-methylbutanoic acid], 8.47.
In the case of `Cc1onc(-c2ccccc2)c1-c1ccc2oc3cc(S(=O)(=O)N[C@H](C(=O)O)C(C)C)ccc3c2c1` [Compound 161, (S)-3-methyl-2-(8-(5-methyl-3-phenylisoxazol-4-yl)dibenzo[b,d]furan-3-sulfonamido)butanoic acid] it was 7.09; in that of `CC(C)[C@H](NS(=O)(=O)c1ccc2c(c1)oc1ccc(-c3ccccc3)cc12)C(=O)O` [Compound 309, (S)-3-methyl-2-(8-phenyldibenzo[b,d]furan-3-sulfonamido)butanoic acid], more than 8.82.
Consider `CC(C)[C@@H](NS(=O)(=O)c1ccc2sc3cc(-c4ccc(Cl)o4)ccc3c2c1)C(=O)O` [Compound 288, (R)-2-(7-(5-chlorofuran-2-yl)dibenzo[b,d]thiophene-2-sulfonamido)-3-methylbutanoic acid], for which the pIC50 is 6.96.
Compound `CC(C)[C@H](NS(=O)(=O)c1ccc2c(c1)oc1ccc(-c3nc4ccccc4s3)cc12)C(=O)O` [Compound 151, (S)-2-(8-(benzo[d]thiazol-2-yl)dibenzo[b,d]furan-3-sulfonamido)-3-methylbutanoic acid] showed a pIC50 of more than 8.82.
To `CC(C)[C@@H](NS(=O)(=O)c1ccc2oc3cc(-c4noc(C(C)(C)C)n4)ccc3c2c1)C(=O)O` [Compound 133, (R)-2-(7-(5-tert-butyl-1,2,4-oxadiazol-3-yl)dibenzo[b,d]furan-2-sulfonamido)-3-methylbutanoic acid] belongs 8.10; to `CC(C)[C@H](NS(=O)(=O)c1ccc2c(c1)sc1ccc(-c3ccncc3)cc12)C(=O)O` [Compound 56, (S)-3-methyl-2-(8-(pyridin-4-yl)dibenzo[b,d]thiophene-3-sulfonamido)butanoic acid], 8.08.
In the case of `O=C(O)CNS(=O)(=O)c1ccc2c(c1)oc1ccc(-c3nccs3)cc12` [Compound 251, 2-(8-(thiazol-2-yl)dibenzo[b,d]furan-3-sulfonamido)acetic acid] it was 7.77; in that of `COc1ccc2nc(-c3ccc4c(c3)oc3ccc(S(=O)(=O)N[C@@H](C(=O)O)C(C)C)cc34)sc2c1` [Compound 296, (R)-2-(7-(6-methoxybenzo[d]thiazol-2-yl)dibenzo[b,d]furan-2-sulfonamido)-3-methylbutanoic acid], 8.51; in that of `CC(C)[C@H](NS(=O)(=O)c1ccc2c(c1)oc1cc(-c3nnn[nH]3)ccc12)C(=O)O` [Compound 250, (S)-2-(7-(1H-tetrazol-5-yl)dibenzo[b,d]furan-3-sulfonamido)-3-methylbutanoic acid], 6.62.
`CC(C)[C@@H](NS(=O)(=O)c1ccc2oc3cc(-c4noc(C5CCCC5)n4)ccc3c2c1)C(=O)O` [Compound 190, (R)-2-(7-(5-cyclopentyl-1,2,4-oxadiazol-3-yl)dibenzo[b,d]furan-2-sulfonamido)-3-methylbutanoic acid] showed a pIC50 of 8.66.
